Reference: patent publication US20060078629A1, “Nutritional compositions and use thereof” (priority 2003, published 2006)

Key:
[1] = test system: DNA damage in various tissues; details: Food Chem Toxicol 2000, 38:15; cited from earlier work
[2] = test system: chemically induced cancers; details: in vivo; cited from earlier work
[3] = slow (e.g. 20 minutes) intravenous injection, 400 mg glutathione in 20 ml saline
Excerpt: According to one aspect of the invention, the intravenous administration of glutathione is used to achieve the desired blood levels. […] Repeated injections may be necessary in severely ill patients.

SMILES | decrease of DNA damage in various tissues [1] | prevention of chemically induced cancers [2] | achieving the desired blood glutathione levels [3]
OCc1c[nH]c2ccccc12 [Example I3C, Indole-3-carbinol] | 67-82% | up to 90% | –
N[C@@H](CCC(=O)N[C@@H](CS)C(=O)NCC(=O)O)C(=O)O [glutathione] | – | – | effective
